In EP0200024B1, “3-Cyano-pyridines, process for their preparation and their pharmaceutical use” (ARZNEIMITTELWERK DRESDEN GmbH, priority 1985, dated 1986):

Tests used:
[1] = test system: Samenleiter von Meerschweinchen; assay: Noradrenaline antagonism in vitro (noradrenaline contraction of isolated vas deferens); details: for IC50: Cavia porcellus, compound given 1 min before submaximal noradrenaline concentration, read-out: ED₅₀-Werte (Hemmung der Noradrenalinkontraktion); for Hemmung der Noradrenalinkontraktion: result in words
Protocol: Die in Warmblüterphosphattyrode präparierten Samenleiter von Meerschweinchen (ca. 400 g Körpermasse) wurden 60 Min. im Organbad adaptiert. Anschließend wurden die Kontraktionen unter Gabe von Noradrenalin isotonisch registriert. Die 3-Cyan-2-(heteroalkyl-1-hetero)-pyridine der Formel I wurden 1 Min vor den jeweils submaximal reagierenden Noradrenalinkonzentrationen in das Organbad appliziert. […] Für die Verbindungen von Beispiel 1.2, 1.6, 1.7 und 1.8 ergaben sich beispielsweise ED₅₀-Werte von 2,2 · 10⁻⁵, 1,6 · 10⁻⁴, 2,5 · 10⁻⁴ sowie 1,3 · 10⁻⁴ mol/l.

[2] = test system: Meerschweinchen; assay: Inhalative histamine bronchospasm, oral administration; type: in vivo; details: Cavia porcellus, 1 h, 60 min before inhaled 0,1 % histamine, 10 animals per dose, read-out: ED₅₀-Werte (Schutz vor Histamin-Bronchialkonstriktionen)
Protocol: Eine, in einem Ultraschallverdampfer vernebelte 0,1 %ige Histaminlösung induziert an männlichen Meerschweinchen (Körpermasse 200-300 g) innerhalb von 2 bis 3 Min. typische Bronchialkonstriktionen. Durch orale Verabreichung geeigneter Dosen der 3-Cyan-2-(heteroalkyl-1-hetero)-pyridine der Formel I 60 Min. vor der inhalativen Histamingabe wurden die Tiere innerhalb einer festgelegten Expositionszeit vor den durch Histamin verursachten Bronchialkonstriktionen geschützt. Für die Derivate von Beispiel 1.2, 1.6, 1.7 und 1.8 ergeben sich z.B. aus je 10 Tieren pro Dosis ED₅₀-Werte von 4,3 · 10⁻⁴, 6,0 · 10⁻⁴, 3,3 · 10⁻⁴ sowie 2,5 · 10⁻⁴ mol/kg, was auf deutliche bronchodilatatorische bzw. antiallergische Wirkungen hinweist.

[3] = test system: Isolierter, spontanaktiver Vorhof des Meerschweinchens; assay: Isolated, spontaneously active atrium (inotropy and frequency); parameters: species or system Meerschweinchen; details: for EC30: Tyrode solution according to A.A. Alousi et al., 32 °C, read-out: 30%ige Steigerung der Inotropie bei Konzentrationen von; for chronotrope Wirkung / positiv inotrope Wirkung: result in words
Protocol: Für die Versuche wurden männliche Meerschweinchen mit einer Körpermasse von 400-500 g verwendet. Am isolierten, spontanaktiven Vorhof erfolgte nach einer 60 Min. währenden Adaptationszeit der Organpräparate in 32 °C temperierter carbogen-durchperlter Tyrodelösung die Untersuchung der Beeinflussung von Inotropie und Frequenz unter Einwirkung der 3-Cyan-2-(heteroalkyl-1-hetero)-pyridine der Formel I. Eine Reihe von Verbindungen zeigte eine starke und dosisabhängige positiv inotrope Wirkung. Bei Verwendung einer Tyrodelösung nach A.A. Alousi et al. [Circ. Res. 45, 666 (1979)] zeigen beispielsweise die Verbindungen von Beispiel 1.2, 1.7, 1.27, 3.3, 3.4, 3.5, 4.1 bzw. 4.3 eine 30%ige Steigerung der Inotropie bei Konzentrationen von 5,6 · 10⁻⁵, 5,4 · 10⁻⁶, 5,0 · 10⁻⁵, 5,8 · 10⁻⁵, 9,1 · 10⁻⁵, 1,6 · 10⁻⁴, 3,5 · 10⁻⁵ und 5,4 · 10⁻⁵ mol/l. Die Verbindung von Beispiel 1.27 zeigt bei einer Konzentration von 5 · 10⁻⁵ mol/l eine Abnahme der Frequenz um 15 %. Die Verbindung von Beispiel 1.8 zeigt bei Verwendung einer Tyrodelösung mit der Zusammensetzung (mmol/l): NaCl 136,9; KCl 2,7; CaCl₂ 1,8; MgCl₂ 1,0; NaHCO₃ 11,9; NaH₂PO₄ 0,4; Glucose 16,5 eine 30%ige Steigerung der Inotropie bei einer Konzentration von 1,2 · 10⁻⁴ mol/l.

[4] = test system: Langendorff-Herz; assay: Langendorff heart in vitro (isolated perfused, freely beating heart; inotropy, chronotropy, coronary flow); parameters: species or system Meerschweinchen; details: for EC30: molarity of solution, 0,1 ml bolus into aortic stump, giving 30 % increase of inotropy, read-out: Erhöhung der Inotropie um 30 % bei Applikation von je 0,1 ml einer ... molaren Lösung; for EC100: molarity of solution, 0,1 ml bolus, giving 100 % increase of coronary flow, read-out: Erhöhung des Koronardurchflusses um 100 % bei Applikation von je 0,1 ml einer ... molaren Lösung; for positiv chronotrope Wirkung / positiv inotrope Wirkung: result in words
Protocol: Für die Versuche wurden männliche Meerschweinchen mit einer, Körpermasse von 300-350 g eingesetzt. An isolierten, mit carbogenbegaster Tyrodelösung von 37 °C durchströmten, frei schlagenden Herzen, wurden unter konstantem Druck die Kontraktionskraft (Inotropie), die Frequenz (Chronotropie) und der Koronardurchfluß unter dem Einfluß der 3-Cyan-2-(heteroalkyl-1-hetero)-5-(pyrid-4-yl)-pyridine der Formel I untersucht. Dazu wurden jeweils 0,1 ml der entsprechend molaren Substanzlösungen als Bolus direkt in den Aortenstumpf appliziert. Die 3-Cyan-2-(heteraalkyl-1-hetera)-5-(pyrid-4-yl)-pyridine zeigten eine teilweise starke und konzentrationsabhängige positiv inotrope und koronardilatatorische Wirkung. Die positiv chronotrope Wirkung war deutlich geringer, ausgeprägt. Beispielsweise zeigen die Verbindungen der Beispiele 1.2, 1.6, 1.7 und 1.8 eine Erhöhung der Inotropie um 30 % bei Applikation von je 0,1 ml einer 3,0 · 10⁻³, 2,2 · 10⁻², 2,0 · 10⁻⁴ bzw. 1,0 · 10⁻³ molaren Lösung und eine Erhöhung des Koronardurchflusses um 100 % bei Applikation von je 0,1 ml einer 6,0 · 10⁻³, 6,5 · 10⁻², 1,1 · 10⁻² bzw. 1,3 · 10⁻² molaren Lösung. Die Verbindungen der Beispiele 2.2, 2.3 und 2.4 weisen bei Applikation von je 0,1 ml einer 10⁻² molaren Stammlösung in die Aorta eine Erhöhung der Inotropie um 51 %, 38 % und 31 % sowie eine Erhöhung des Koronardurchflusses um 59 %, 99 % bzw. 88 % auf.

[5] = test system: Narkotisiertes Minischwein; assay: Anaesthetised minipig i.v. (dp/dtmax, blood pressure); type: in vivo, Zwergschweinen (Mini-LEWE); details: result in words
From the text: Die Untersuchungen wurden an 6 männlichen Zwergschweinen (Mini-LEWE) mit einem durchschnittlichen Gewicht von 50 kg durchgeführt. Die Tiere wurden unter N₂O-O₂-Beatmung (3:1) und Muskelrelaxation (d-Tubocurarin) thorakotomiert. Der Blutdruck wurde in der Aorta ascendens mittels Transducer und der Druck im linken Ventrikel (LVP) mit einem Tipmanometer gemessen. Aus dem LVP-Signal wurde über ein Differenzierglied dp/dtmax ermittelt. Aus dem EKG wurde mit einem Kardiotachometer die Herzfrequenz zusammen mit anderen Signalen registriert. Das Herz-Zeit-Volumen wurde mit einem elektromagnetischen Flowmeter gemessen und über einen Integrator das Herz-Schlag-Volumen ermittelt. Einige der 3-Cyan-2-(heteroalkyl-1-hetero)-pyridine der Formel I zeigen an diesem Modell eine starke und dosisabhängige Erhöhung der Kontraktilität des Herzens (dp/dtmax) sowie teilweise eine signifikante Senkung des totalen peripheren Gesamtwiderstandes. So wurden beispielsweise unter den Verbindungen von Beispiel 1.2 und 1.7 bei einer Dosis von 2,0 · 10⁻⁶ bzw. 5,5 · 10⁻⁷ eine 50%ige Steigerung des Kontraktilitätsparameters dp/dtmax sowie bei einer Dosis von 1,1 · 10⁻⁶ bzw. 1,7 · 10⁻⁶ eine 10%ige Senkung des diastolischen Blutdruckes, der neben der beobachteten Steigerung des Herzzeitvolumens eine wesentliche Größe zur Bestimmung des totalen peripheren Gefäßwiderstandes darstellt, gefunden.

SMILES | IC50 [1] [µM] | Hemmung der Noradrenalinkontraktion [1] | ED50 [2] [µmol/kg] | EC30 [3] [µM] | chronotrope Wirkung [3] | positiv inotrope Wirkung [3] | EC30 [4] [µM] | EC100 [4] [µM] | positiv chronotrope Wirkung [4] | positiv inotrope Wirkung [4] | Senkung des diastolischen Blutdruckes [5] | Steigerung des Kontraktilitätsparameters dp/dtmax [5]
N#Cc1cc(-c2ccncc2)cnc1NCCO [Beispiel 1.2, 3-Cyan-2-(2-hydroxy-ethylamino)-5-(pyrid-4-yl)-pyridin] | 22 | konzentrationsabhängige Hemmung | 430 | 56 | relative geringer positiv chronotroper Aktivität | ausgeprägte und dosisabhängige positiv inotrope Wirkung | 3000 | 6000 | relative geringer positiv chronotroper Aktivität | ausgeprägte und dosisabhängige positiv inotrope Wirkung | dosisabhängige signifikante Senkung | beträchtliche dosisabhängige Steigerung
N#Cc1cc(-c2ccncc2)cnc1N1CCOCC1 [Beispiel 1.7, 3-Cyan-2-morpholino-5-(pyrid-4-yl)-pyridin] | 250 | konzentrationsabhängige Hemmung | 330 | 5.4 | relative geringer positiv chronotroper Aktivität | ausgeprägte und dosisabhängige positiv inotrope Wirkung | 200 | 11000 | relative geringer positiv chronotroper Aktivität | ausgeprägte und dosisabhängige positiv inotrope Wirkung | dosisabhängige signifikante Senkung | beträchtliche dosisabhängige Steigerung
